Ends that are not written are not given here.
target: rabbit antibodies that recognize specifically the carboxyl terminal tryptophan of ET-1; assay: radioimmunoassay: displacement of [125I]ET-1 binding to the antibodies; settings: mean±SEM, n=3-5; 4° C. overnight
Experimental: Diluted samples (200 μL) obtained from the above enzyme assay are incubated at 4° C. overnight with 25 μL each of [^125I]ET-1 (10,000 cpm/tube) and 1:20,000-fold diluted rabbit antibodies that recognize specifically the carboxyl terminal tryptophan of ET-1. Goat anti-rabbit antibodies coupled to magnetic beads (70 μg) are then added to each tube, and the reaction mixture is further incubated for 30 min at room temperature. The beads are pelleted using a magnetic rack. The supernatant is decanted, and the radioactivity in the pellet is counted in a gamma counter. Total and nonspecific binding are measured in the absence of nonradioactive ET-1 and anti-ET antibodies, respectively.

IC50 for displacement of [125I]ET-1 binding to the antibodies	Compound
21 ± 2 fmol	ET-1: endothelin-1, formed from big ET-1 by ECE; nonradioactive competitor in the radioimmunoassay
260,000±66,000 fmol	big ET-1: Human big ET-1, the ECE substrate used in the enzyme assay (CSCSSLMDKECVYFCHLDIIWVNTPEHVVPYGLGSPRS; ends and bridges not checked; cysteine pairing not given here; UniProt P05305 53-90, looked up)

test system: not given; assay: not given; settings: not given

melting point [°C]	Compound
171 to 173	CC(C)[C@H](S)C(=O)NC1(C(=O)N[C@@H](Cc2ccc(-c3ccccc3F)cc2)C(=O)O)CCCC1 (stereo in doubt) [3-(2′-Fluoro-biphenyl-4-yl)-2-{[1-(2-mercapto-3-methyl-butanoylamino)-cyclopentanecarbonyl]-amino}-propionic acid]
187 to 189	CSc1ccc(-c2ccc(C[C@H](NC(=O)C3(NC(=O)[C@@H](S)CC(C)C)CCCC3)C(=O)O)cc2)cc1 (stereo in doubt) [2-{[1-(2-mercapto4-methyl-pentanoylamino)-cyclopentanecarbonyl]-amino}-3-(4′-methylthio-biphenyl-4-yl)-propionic acid]
179 to 181	COc1ccc(-c2ccc(C[C@H](NC(=O)C3(NC(=O)[C@@H](S)C(C)C)CCCC3)C(=O)O)cc2)cc1 (stereo in doubt) [2-{[1-(2-Mercapto-3-methyl-butanoylamino)-cyclopentanecarbonyl]-amino}-3-(4′-methoxy-biphenyl-4-yl)-propionic acid]
215 to 217	CC(C)C[C@H](S)C(=O)NC1(C(=O)NC(Cc2ccc(-c3ccccc3O)cc2)C(=O)O)CCCC1 (stereo in doubt) [3-(2′-Hydroxy-biphenyl-4-yl)-2-{[1-(2-mercapto-4-methyl-pentanoylamino)-cyclopentanecarbonyl]-amino}-propionic acid]
